Assay [1] has as its system primary human T-cells. Put plainly: Proliferation assay after 5 days (CellTiter-Glo, CD3 stimulation; PBS counter screen). It counts as cell-based. Particulars: Homo sapiens, T-cell, 120 h, CD3 stimulation; for Emax: 5 days, normalized to reference compound A1 as stimulator control = 100%, DMSO neutral control, read-out: Emax proliferation (% activation); for EC50: primary human T-cells, CellTiter-Glo after 5 days, EC50 of fitted sigmoidal curve, read-out: Tcell Proliferation CD3 EC50. In short, it runs like this:
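Proliferation is measured 5 days post-treatment as ATP-dependent luminescence. Flags mark compounds that activated unstimulated cells or harmed viability.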
(In ATP-based viability assays light output follows the ATP content of the culture.)

For assay [2], the system named is primary human T-cells.
Experimental: As readouts for T-cell activation, IL2 secretion after 24 hours and proliferation after 5 days was measured. Increases in IL2 secretion and proliferation upon compound treatment were assessed as the % of the maximum of reference compound A1. […] As a counter screen and to make sure that no unwanted TCR-independent activation was triggered, PBS conditions were run for all compounds.
For coating of plates, PBS++ with PBS−− or PBS++ with CD3 antibody (concentration depending on donor and determined by CD3 titrations) was added 100 μl/well to Poly-D Lysine coated 96-well plates. Plates were sealed and incubated at room temperature for 3 hours on a table-top rocking platform. After incubation, plates were washed once with PBS−− and filled with 40 μl/well culture medium only. Compounds were then added (see next section) to medium only plates. After 3 hours of culturing the T-cells, cells were filtered through a cell strainer (Miltenyi Biotech, #130-041-407), counted again and concentration was adjusted to 1.25 Mio/ml.
Cells were then seeded 80 μl/well to the 40 μl/well including dispensed compounds according to plate layout. By adding cells, compounds were further diluted 1:3, and resulting in 100 k cells/120 μl/well. After 24 hours 40 μl of supernatant was collected carefully from the top while not disturbing the cells and transferred into a round bottom 96 well plate. Collected and frozen supernatant was used for detection of IL2 using the IL-2 Human ProQuantum Immunoassay Kit (Invitrogen) or using the Human IL-2 ELISA Kit (Thermo Fisher).
Compounds were added in a 5 or 6pt dose response with the Tecan D300e Digital Dispenser, all conditions 3 times more concentrated than the end-concentration, since cells are added afterwards (80 μl cells to 40 μl prepared medium with treatment). The DR was starting at 20 μM or 10 μM final top concentration and a dilution factor of 3.333. The positive control was the reference compound A1 that was added in a dose response as well, additionally to 3 wells of only 20 μM representing the positive stimulator control. All wells were normalized with DMSO to a final concentration of 0.6% (0.2% end-concentration).
The immunoassay is done following the manufacturer's manual (Invitrogen, #A35603). Additional information: For the immunoassay, MicroAmp™ EnduraPlate™ Optical 384-Well plates are used. Frozen supernatant is thawed and centrifuged for 5 minutes at 1000×g, both steps at 4° C. After centrifugation, required sample amount is taken from the top, and in a separate LightCycler V-bottom plate (working plate) diluted with assay dilution buffer, dilution factor depending on the PBS or CD3 condition but at least 1:3. IL-2 standard and blanks are prepared in the same V-bottom plate, standard with a range of 0.0128-5000 pg/ml (extended version). After preparation, 5 μl of sample dilutions or standard/blanks are transferred to the optical 384-well plate (assay plate) and the 10 μl reaction protocol is being followed. For measurement, the QuantStudio 12K Flex system is used.
ELISA is done following the manufacturer's manual (Thermo Fisher Scientific, #88-7025-88). Additional information: For the ELISA Nunc MaxiSorp 96 well plates are used. Frozen supernatant is thawed and centrifuged for 5 minutes at 1000×g, both steps at 4° C. After that, required sample amount is taken from the top, and in a separate V-bottom plate diluted with ELISA diluent, dilution factor depending on the PBS or CD3 condition. IL-2 standard and blanks are prepared in the same V-bottom plate. After preparation, 50 μl of sample dilutions and 100 μl of standard or blanks are transferred to the Nunc plates.
CD3 and PBS plates were analysed separately in Genedata Screener using Roche Normalization PCT_POS_CTRL with DMSO set as Neutral Control and 20 μM of the reference compound A1 set as Stimulator Control/100%.
For CD3 conditions EC50 and Emax of the fitted sigmoidal curve were reported.

21 molecules from US20240368150A1 (Hoffmann-La Roche Inc., priority 2021, published 2024) can be followed below.

Where two headings read alike, the source gives them in different places.

Turning to `N[C@H]1CS(=O)(=O)c2cc(F)c(-c3noc(N4CCOC5(CC5)C4)n3)cc2N(Cc2ccc(Cl)cc2)C1=O` [Example 194, (3R)-3-amino-5-[(4-chlorophenyl)methyl]-8-fluoro-7-[5-(4-oxa-7-azaspiro[2.5]octan-7-yl)-1,2,4-oxadiazol-3-yl]-1,1-dioxo-2,3-dihydro-1λ^6,5-benzothiazepin-4-one], in assay [1], the Emax is 79% and the EC50 stood at 15.2 nM. Besides, the EC50 in assay [2] was 40.7 nM.

`N[C@H]1CS(=O)(=O)c2cc(F)c(-c3noc(NC4CCC4)n3)cc2N(Cc2ccc(Cl)cc2)C1=O` [Example 195, (3R)-3-amino-5-[(4-chlorophenyl)methyl]-7-[5-(cyclobutylamino)-1,2,4-oxadiazol-3-yl]-8-fluoro-1,1-dioxo-2,3-dihydro-1λ^6,5-benzothiazepin-4-one]: in assay [1], the Emax turned out to be 108% and the EC50 amounted to 106 nM. The molecule also gave an EC50 in assay [2] of 167 nM.

On to `N[C@H]1CS(=O)(=O)c2cc(F)c(-c3noc(N4CCOCC4)n3)cc2N(Cc2ccc(Cl)cc2)C1=O` [Example 196, (3R)-3-amino-5-[(4-chlorophenyl)methyl]-8-fluoro-7-(5-morpholino-1,2,4-oxadiazol-3-yl)-1,1-dioxo-2,3-dihydro-1λ^6,5-benzothiazepin-4-one], for which, in assay [1], the Emax worked out at 81% and the EC50 stood at 16.6 nM. This molecule also had an EC50 in assay [2] of 36.1 nM.

With `N[C@H]1CS(=O)(=O)c2cc(F)c(-c3noc(N4CCC(F)(F)CC4)n3)cc2N(Cc2ccc(Cl)cc2)C1=O` [Example 197, (3R)-3-amino-5-[(4-chlorophenyl)methyl]-7-[5-(4,4-difluoro-1-piperidyl)-1,2,4-oxadiazol-3-yl]-8-fluoro-1,1-dioxo-2,3-dihydro-1λ^6,5-benzothiazepin-4-one], in assay [1], the Emax stood at 112% and the EC50 is 118 nM. In assay [2], this molecule returned an EC50 of 226 nM.

With `N[C@H]1CS(=O)(=O)c2cc(F)c(-c3noc(N4CCNC(C(F)(F)F)C4)n3)cc2N(Cc2ccc(Cl)cc2)C1=O` (stereo partly drawn) [Example 198, (3R)-3-amino-5-[(4-chlorophenyl)methyl]-8-fluoro-1,1-dioxo-7-[5-[3-(trifluoromethyl)piperazin-1-yl]-1,2,4-oxadiazol-3-yl]-2,3-dihydro-1λ^6,5-benzothiazepin-4-one], in assay [1], the Emax was 112% and the EC50 amounted to 332 nM. This molecule had an EC50 in assay [2] of 562 nM.

As for `CC(C)(C#N)Nc1nc(-c2cc3c(cc2F)S(=O)(=O)C[C@H](N)C(=O)N3Cc2ccc(Cl)cc2)no1` [Example 199, 2-methyl-2-[[3-[(3R)-3-amino-5-[(4-chlorophenyl)methyl]-8-fluoro-1,1,4-trioxo-2,3-dihydro-1λ^6,5-benzothiazepin-7-yl]-1,2,4-oxadiazol-5-yl]amino]propanenitrile], in assay [1], the Emax worked out at 71% and the EC50 worked out at 2960 nM. The EC50 in assay [2] is more than 10000 nM.

As for `N[C@H]1CS(=O)(=O)c2cc(F)c(-c3noc(N4[C@@H]5CC[C@H]4COC5)n3)cc2N(Cc2ccc(Cl)cc2)C1=O` [Example 200, (3R)-3-amino-5-[(4-chlorophenyl)methyl]-8-fluoro-1,1-dioxo-7-[5-[(1R,5S)-3-oxa-8-azabicyclo[3.2.1]octan-8-yl]-1,2,4-oxadiazol-3-yl]-2,3-dihydro-1λ^6,5-benzothiazepin-4-one], in assay [1], the Emax turned out to be 88% and the EC50 came to 37.9 nM. The EC50 in assay [2] stood at 142 nM.

Consider `CC1(Nc2nc(-c3cc4c(cc3F)S(=O)(=O)C[C@H](N)C(=O)N4Cc3ccc(Cl)cc3)no2)CC(F)(F)C1` [Example 201, (3R)-3-amino-5-[(4-chlorophenyl)methyl]-7-[5-[(3,3-difluoro-1-methyl-cyclobutyl)amino]-1,2,4-oxadiazol-3-yl]-8-fluoro-1,1-dioxo-2,3-dihydro-1λ^6,5-benzothiazepin-4-one], for which, in assay [1], the Emax was found to be 156% and the EC50 is 229 nM. Besides, in assay [2], the EC50 worked out at 828 nM.

Consider `NC(CNc1nc(-c2cc3c(cc2F)S(=O)(=O)C[C@H](N)C(=O)N3Cc2ccc(Cl)cc2)no1)C(F)(F)F` (stereo partly drawn) [Example 202, (3R)-3-amino-7-[5-[(2-amino-3,3,3-trifluoro-propyl)amino]-1,2,4-oxadiazol-3-yl]-5-[(4-chlorophenyl)methyl]-8-fluoro-1,1-dioxo-2,3-dihydro-1λ^6,5-benzothiazepin-4-one], for which, in assay [1], the Emax was determined as 57% and the EC50 was 1430 nM. Further, the EC50 in assay [2] is 1300 nM.

For `C#CCOCCOCCCC(C)(C)Nc1nc(-c2cc3c(cc2F)S(=O)(=O)C[C@H](N)C(=O)N3Cc2ccc(Cl)cc2)no1` [Example 203, (3R)-3-amino-5-[(4-chlorophenyl)methyl]-7-[5-[[1,1-dimethyl-4-(2-prop-2-ynoxyethoxy)butyl]amino]-1,2,4-oxadiazol-3-yl]-8-fluoro-1,1-dioxo-2,3-dihydro-1λ^6,5-benzothiazepin-4-one], in assay [1], the Emax was 99% and the EC50 is 233 nM. In assay [2], this molecule had an EC50 of 1580 nM.

For the molecule `N[C@H]1CS(=O)(=O)c2cc(F)c(-c3noc(N4CCOC(F)(F)C4)n3)cc2N(Cc2ccc(Cl)cc2)C1=O` [Example 204, (3R)-3-amino-5-[(4-chlorophenyl)methyl]-7-[5-(2,2-difluoromorpholin-4-yl)-1,2,4-oxadiazol-3-yl]-8-fluoro-1,1-dioxo-2,3-dihydro-1λ^6,5-benzothiazepin-4-one], in assay [1], the Emax is 154% and the EC50 stood at 34.8 nM. In addition, the EC50 in assay [2] worked out at 78.5 nM.

Consider `N[C@H]1CS(=O)(=O)c2cc(F)c(-c3noc(NC4CC(F)(F)C4)n3)cc2N(Cc2ccc(Cl)cc2)C1=O` [Example 206], for which, in assay [1], the Emax worked out at 168%. For the same molecule, the EC50 in assay [1] stood at 157 nM; in assay [2] it was 542 nM.

`CCc1coc(-c2cc3c(cc2F)S(=O)(=O)C[C@H](N)C(=O)N3Cc2ccc(Cl)cc2)n1` [Example 216, (3R)-3-amino-5-[(4-chlorophenyl)methyl]-7-(4-ethyloxazol-2-yl)-8-fluoro-1,1-dioxo-2,3-dihydro-1λ^6,5-benzothiazepin-4-one]: in assay [1], the Emax stood at 41% and the EC50 is more than 20000 nM. In assay [2], this molecule showed an EC50 of 16400 nM.

As for `N[C@H]1CS(=O)(=O)c2ccc(-c3nnc(CC(F)(F)F)o3)c(F)c2N(Cc2ccc(Cl)cc2)C1=O` [Example 217, (3R)-3-amino-5-[(4-chlorophenyl)methyl]-6-fluoro-1,1-dioxo-7-[5-(2,2,2-trifluoroethyl)-1,3,4-oxadiazol-2-yl]-2,3-dihydro-1λ^6,5-benzothiazepin-4-one], in assay [1], the Emax amounted to 221% and the EC50 came out at 2110 nM. This molecule gave an EC50 in assay [2] of 780 nM.

In the case of `Cc1c(F)c(-c2nnc(C(C)(C)C)o2)cc2c1S(=O)(=O)C[C@H](N)C(=O)N2Cc1ccc(Cl)cc1` [Example 218, (3R)-3-amino-7-(5-tert-butyl-1,3,4-oxadiazol-2-yl)-5-[(4-chlorophenyl)methyl]-8-fluoro-9-methyl-1,1-dioxo-2,3-dihydro-1λ^6,5-benzothiazepin-4-one], in assay [1], the Emax amounted to 80% and the EC50 was determined as 3890 nM. In assay [2], this molecule gave an EC50 of 7860 nM.

As to `CC(C)(C)c1nnc(-c2cc3c(cc2F)S(=O)(=O)C[C@H](N)C(=O)N3Cc2cccc(Cl)c2)o1` [Example 219, (3R)-3-amino-7-(5-tert-butyl-1,3,4-oxadiazol-2-yl)-5-[(3-chlorophenyl)methyl]-8-fluoro-1,1-dioxo-2,3-dihydro-1λ^6,5-benzothiazepin-4-one], the Emax in assay [1] came to 105%. Besides, the EC50 in assay [1] came to 2740 nM; in assay [2], 3210 nM.

For the molecule `CC(C)(C)c1nnc(-c2cc3c(cc2F)S(=O)(=O)C[C@H](N)C(=O)N3Cc2ccc(OC3CCOC3)cc2)o1` (stereo partly drawn) [Example 221, (3R)-3-amino-7-(5-tert-butyl-1,3,4-oxadiazol-2-yl)-8-fluoro-1,1-dioxo-5-[(4-tetrahydrofuran-3-yloxyphenyl)methyl]-2,3-dihydro-1λ^6,5-benzothiazepin-4-one], in assay [1], the Emax came to 107% and the EC50 is 255 nM. In assay [2], this molecule came in with an EC50 of 382 nM.

As for `CC(C)(C)c1nnc(-c2cc3c(cc2F)S(=O)(=O)C[C@H](N)C(=O)N3Cc2ccc(OCC(F)F)cc2)o1` [Example 222, (3R)-3-amino-7-(5-tert-butyl-1,3,4-oxadiazol-2-yl)-5-[[4-(2,2-difluoroethoxy)phenyl]methyl]-8-fluoro-1,1-dioxo-2,3-dihydro-1λ^6,5-benzothiazepin-4-one], in assay [1], the Emax came out at 119% and the EC50 is 235 nM. The molecule also gave an EC50 in assay [2] of 535 nM.

With `CC(C)(C)c1nnc(-c2cc3c(cc2F)S(=O)(=O)C[C@H](N)C(=O)N3Cc2ccc(OC(F)F)cc2)o1` [Example 223, (3R)-3-amino-7-(5-tert-butyl-1,3,4-oxadiazol-2-yl)-5-[[4-(difluoromethoxy)phenyl]methyl]-8-fluoro-1,1-dioxo-2,3-dihydro-1λ^6,5-benzothiazepin-4-one], in assay [1], the Emax was 128%. The EC50 was less than 162 nM in assay [1] and more than 20000 nM in assay [2].

Take `CC(C)(C)c1nnc(-c2cc3c(cc2F)S(=O)(=O)C[C@H](N)C(=O)N3Cc2ccccn2)o1` [Example 224, (3R)-3-amino-7-(5-tert-butyl-1,3,4-oxadiazol-2-yl)-8-fluoro-1,1-dioxo-5-(2-pyridylmethyl)-2,3-dihydro-1λ^6,5-benzothiazepin-4-one]: in assay [1], the Emax is 31% and the EC50 was more than 20000 nM. Moreover, the EC50 in assay [2] is more than 20000 nM.

With `COc1ccc(CN2C(=O)[C@@H](N)CS(=O)(=O)c3cc(F)c(-c4nnc(C(C)(C)C)o4)cc32)cn1` [Example 225, (3R)-3-amino-7-(5-tert-butyl-1,3,4-oxadiazol-2-yl)-8-fluoro-5-[(6-methoxy-3-pyridyl)methyl]-1,1-dioxo-2,3-dihydro-1λ^6,5-benzothiazepin-4-one], in assay [1], the Emax was 109% and the EC50 was 1890 nM. The EC50 in assay [2] was 4370 nM.
